Test system: 217524-143-R1-J4-PDC spheroids with HUVEC/MSC, viability
Assay: Anticancer human tumor 217524-143-R1-J4-PDC patient-derived pancreatic carcinoma cell line growth inhibition [CLK]
Settings: for IC50: curve of first compound; for viability, T/C: stronger effect = lower value
Source text: A high-throughput screen of multi-cell type tumor spheroids was designed to identify active combinations of […] and targeted small molecules. Complex spheroids include a stromal component modeled by human endothelial cells (HUVEC) and fibroblasts modeled by human mesenchymal stem cells (MSCs). The concentration ranges selected for each drug and investigational agent were based upon clinically achievable concentrations if the clinical Cmax of the agent was known.
Compounds. The drugs and investigational agents: cirtuvivint (SM08502; NSC835563), CC-671 (NSC850746), vemurafenib (NSC761431), tapotoclax (NSC804041), sotorasib (NSC818433), adagrasib (NSC831453), MRTX-1133 (NSC836407), BAY2416964 (NSC825713), copanlisib (NSC816437), inavolisib (NSC800729), abemaciclib (NSC768073), osimertinib (NSC779217), entinostat (NSC756642), eltanexor (KPT-8602, NSC794443), venetoclax (NSC766270), ceralasertib (NSC777638), bortezomib (NSC756655), olaparib (NSC753686), talazoparib (NSC767125), alisertib (NSC759677), peposertib (NSC802822), gemcitabine (NSC613327), 5-fluorouracil (NSC19893), SN-38 (NSC673596), oxaliplatin (NSC266046), paclitaxel (NSC125973), and doxorubicin (NSC123127), were obtained from the National Cancer Institute (NCI) Developmental Therapeutics Program Chemical Repository. The FDA-approved anticancer drug set is available from the Developmental Therapeutics Program at https://dtp.cancer.gov/organization/dscb/obtaining/available plates.htm. […] The stock solutions were prepared in dimethyl sulfoxide (DMSO, Sigma-Aldrich, St. Louis, MO, cat. D2650), except for the platinum complexes which were prepared in saline (Quality Biological, Gaithersburg, MD, cat. 114-055-101), at 800-fold the tested concentration and stored at -70 degrees C prior to their use. All drugs and investigational agents were tested over a range starting from a high concentration at or near the clinical Cmax and decreasing in half-log increments. If the clinical Cmax for an agent had not been determined, the highest concentration tested was 10 microM.
Cell Culture. All cells were maintained in an incubator at 37 degrees C and 5% CO2 with 95% humidity. The PDC lines were cultured according to standard operating procedures established by the NCI PDMR. Briefly, all PDCs were thawed and cultured in Matrigel-coated flasks prepared with a working solution of 1X Ham's F-12 nutrient mix, without supplementation (Invitrogen, Waltham, MA, cat. 11765054), 100 U/mL penicillin-streptomycin (Invitrogen, cat. 15140122), and 2.5% Matrigel (Corning Inc., Corning, NY, cat. 354248) for the first three passages. The 947758-054-R-J2-PDC line was cultured in 6B/Colon 1A media, which includes advanced DMEM/F-12 (Thermo Fisher Scientific, cat. 12634028), 10 mM HEPES (Thermo Fisher Scientific, cat. 15630080), 1X GlutaMAX supplement (Thermo Fisher Scientific, cat. 35050061), 0.1 mg/mL primocin (InvivoGen, cat. ant-pm-2), 10% defined fetal bovine serum, heat inactivated (HyClone Laboratories Inc., cat. SH30070.03HI), 1.25 mM N-Acetyl-L-cysteine (Sigma-Aldrich, cat. A9165), 10 mM nicotinamide (Sigma-Aldrich, cat. N0636), 1X B-27 supplement (Thermo Fisher Scientific, cat. 17504044), 1X N-2 supplement (Thermo Fisher Scientific, cat. 17502048), and 10 microM Y-27632 dihydrochloride (Tocris Bioscience, cat. 1254). The 876862-298-R-J1-PDC was cultured in 6E media, which includes all 6B/Colon 1A media components plus 50% L-WRN conditioned media (ATCC, cat. CRL-3276), 50 ng/mL recombinant human EGF recombinant protein (hEGF; Thermo Fisher Scientific, cat. PHG0311), 10 ng/mL recombinant human fibroblast growth factor 10 (hGFG-10; PeproTech, cat. 100-26), 1 ng/mL recombinant human fibroblast growth factor 2 (hFGF-2; PeproTech, cat. 100-18B), and 1 µM prostaglandin E2 (PGE2; Tocris, cat. 2296). The 227483-062-R1-J1-PDC line was cultured in Panc media, containing all 6E components except hFGF-2, with the addition of 500 nM SB-431542 (Selleckchem, cat. S1067) and 10 nM gastrin (Tocris, cat. 3006). […]

[1] = second compound 0.0316 µM, first compound 0.0316 µM
[2] = second compound 0.0316 µM, first compound 0.1 µM
[3] = second compound 0.0316 µM, first compound 0.316 µM
[4] = second compound 0.0316 µM, first compound 1 µM
[5] = second compound 0.1 µM, first compound 0.0316 µM
[6] = second compound 0.1 µM, first compound 0.1 µM
[7] = second compound 0.1 µM, first compound 0.316 µM
[8] = second compound 0.1 µM, first compound 1 µM
[9] = second compound 0.316 µM, first compound 0.0316 µM
[10] = second compound 0.316 µM, first compound 0.1 µM
[11] = second compound 0.316 µM, first compound 0.316 µM
[12] = second compound 0.316 µM, first compound 1 µM
[13] = second compound 1 µM, first compound 0.0316 µM
[14] = second compound 1 µM, first compound 0.1 µM
[15] = second compound 1 µM, first compound 0.316 µM
[16] = second compound 1 µM, first compound 1 µM
[17] = second compound 3.16 µM, first compound 0.0316 µM
[18] = second compound 3.16 µM, first compound 0.1 µM
[19] = second compound 3.16 µM, first compound 0.316 µM
[20] = second compound 3.16 µM, first compound 1 µM
[21] = second compound 10 µM, first compound 0.0316 µM
[22] = second compound 10 µM, first compound 0.1 µM
[23] = second compound 10 µM, first compound 0.316 µM
[24] = second compound 10 µM, first compound 1 µM
[25] = second compound 0.0316 µM, first compound 0.00316 µM
[26] = second compound 0.0316 µM, first compound 0.01 µM
[27] = second compound 0.1 µM, first compound 0.00316 µM
[28] = second compound 0.1 µM, first compound 0.01 µM
[29] = second compound 0.316 µM, first compound 0.00316 µM
[30] = second compound 0.316 µM, first compound 0.01 µM
[31] = second compound 1 µM, first compound 0.00316 µM
[32] = second compound 1 µM, first compound 0.01 µM
[33] = second compound 3.16 µM, first compound 0.00316 µM
[34] = second compound 3.16 µM, first compound 0.01 µM
[35] = second compound 10 µM, first compound 0.00316 µM
[36] = second compound 10 µM, first compound 0.01 µM
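Also: spheroids exposed to agents for seven days before reading.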
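For viability, T/C in this document: 100% = DMSO vehicle control viability.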

CC(Nc1ccc2c(c1)OCCn1cc(N3C(=O)OCC3C(F)F)nc1-2)C(N)=O (stereo unspecified) + CN1CCN(c2cc(C(=O)Nc3cc4cc(-c5cnn(C)c5)ccc4cn3)ccn2)CC1
IC50 (second compound 0.0316 µM): 61.8 nM
IC50 (second compound 0.1 µM): < 31.6 nM
IC50 (second compound 0.316 µM): < 31.6 nM
IC50 (second compound 1 µM): < 31.6 nM
IC50 (second compound 3.16 µM): < 31.6 nM
IC50 (second compound 10 µM): < 31.6 nM
viability, T/C [1]: 75.1%
viability, T/C [2]: 30.5%
viability, T/C [3]: 16.9%
viability, T/C [4]: 6.57%
viability, T/C (second compound 0.0316 µM, first compound 3.16 µM): 5.62%
viability, T/C (second compound 0.0316 µM, first compound 10 µM): 3.9%
viability, T/C [5]: 40.8%
viability, T/C [6]: 24.6%
viability, T/C [7]: 10.2%
viability, T/C [8]: 5.26%
viability, T/C (second compound 0.1 µM, first compound 3.16 µM): 4.73%
viability, T/C (second compound 0.1 µM, first compound 10 µM): 3.98%
viability, T/C [9]: 19.2%
viability, T/C [10]: 9.36%
viability, T/C [11]: 6.98%
viability, T/C [12]: 4.68%
viability, T/C (second compound 0.316 µM, first compound 3.16 µM): 3.77%
viability, T/C (second compound 0.316 µM, first compound 10 µM): 3.27%
viability, T/C [13]: 2.47%
viability, T/C [14]: 1.63%
viability, T/C [15]: 1.31%
viability, T/C [16]: 1.2%
viability, T/C (second compound 1 µM, first compound 3.16 µM): 1.03%
viability, T/C (second compound 1 µM, first compound 10 µM): 0.93%
viability, T/C [17]: 0.62%
viability, T/C [18]: 0.64%
viability, T/C [19]: 0.73%
viability, T/C [20]: 0.58%
viability, T/C (second compound 3.16 µM, first compound 3.16 µM): 0.75%
viability, T/C (second compound 3.16 µM, first compound 10 µM): 0.64%
viability, T/C [21]: 0.11%
viability, T/C [22]: 0.18%
viability, T/C [23]: 0.18%
viability, T/C [24]: 0.13%
viability, T/C (second compound 10 µM, first compound 3.16 µM): 0.27%
viability, T/C (second compound 10 µM, first compound 10 µM): 0.2%

CCN1CCN(Cc2ccc(Nc3ncc(F)c(-c4cc(F)c5nc(C)n(C(C)C)c5c4)n3)nc2)CC1 + CN1CCN(c2cc(C(=O)Nc3cc4cc(-c5cnn(C)c5)ccc4cn3)ccn2)CC1
IC50 (second compound 0.0316 µM): 224 nM
IC50 (second compound 0.1 µM): 11 nM
IC50 (second compound 0.316 µM): < 3.16 nM
IC50 (second compound 1 µM): < 3.16 nM
IC50 (second compound 3.16 µM): < 3.16 nM
IC50 (second compound 10 µM): < 3.16 nM
viability, T/C [25]: 93.3%
viability, T/C [26]: 62.5%
viability, T/C [1]: 71.2%
viability, T/C [2]: 60%
viability, T/C [3]: 41%
viability, T/C [4]: 44.6%
viability, T/C [27]: 55.3%
viability, T/C [28]: 53.4%
viability, T/C [5]: 44.8%
viability, T/C [6]: 39%
viability, T/C [7]: 29.1%
viability, T/C [8]: 32.6%
viability, T/C [29]: 23.3%
viability, T/C [30]: 21.7%
viability, T/C [9]: 17.6%
viability, T/C [10]: 17.6%
viability, T/C [11]: 15.8%
viability, T/C [12]: 17.1%
viability, T/C [31]: 2.31%
viability, T/C [32]: 2.94%
viability, T/C [13]: 2.53%
viability, T/C [14]: 3.19%
viability, T/C [15]: 3.76%
viability, T/C [16]: 3.89%
viability, T/C [33]: 0.74%
viability, T/C [34]: 0.96%
viability, T/C [17]: 1.42%
viability, T/C [18]: 1.28%
viability, T/C [19]: 3%
viability, T/C [20]: 4.17%
viability, T/C [35]: 0.23%
viability, T/C [36]: 0.28%
viability, T/C [21]: 0.27%
viability, T/C [22]: 0.28%
viability, T/C [23]: 0.46%
viability, T/C [24]: 0.58%

COc1c(OCCCN2CCOCC2)ccc2c3n(c(=NC(=O)c4cnc(N)nc4)nc12)CCN3 + CN1CCN(c2cc(C(=O)Nc3cc4cc(-c5cnn(C)c5)ccc4cn3)ccn2)CC1
IC50 (second compound 0.0316 µM): 6.3 nM
IC50 (second compound 0.1 µM): < 3.16 nM
IC50 (second compound 0.316 µM): < 3.16 nM
IC50 (second compound 1 µM): < 3.16 nM
IC50 (second compound 3.16 µM): < 3.16 nM
IC50 (second compound 10 µM): < 3.16 nM
viability, T/C [25]: 72.3%
viability, T/C [26]: 35.1%
viability, T/C [1]: 8.37%
viability, T/C [2]: 4.22%
viability, T/C [3]: 3.38%
viability, T/C [4]: 2.18%
viability, T/C [27]: 40.3%
viability, T/C [28]: 24.1%
viability, T/C [5]: 7.97%
viability, T/C [6]: 4.61%
viability, T/C [7]: 2.58%
viability, T/C [8]: 2.72%
viability, T/C [29]: 18.8%
viability, T/C [30]: 12.1%
viability, T/C [9]: 5.45%
viability, T/C [10]: 3.87%
viability, T/C [11]: 2.75%
viability, T/C [12]: 2.26%
viability, T/C [31]: 2.94%
viability, T/C [32]: 1.77%
viability, T/C [13]: 1.27%
viability, T/C [14]: 1.02%
viability, T/C [15]: 0.59%
viability, T/C [16]: 0.49%
viability, T/C [33]: 0.65%
viability, T/C [34]: 0.68%
viability, T/C [17]: 0.5%
viability, T/C [18]: 0.47%
viability, T/C [19]: 0.5%
viability, T/C [20]: 0.45%
viability, T/C [35]: 0.14%
viability, T/C [36]: 0.14%
viability, T/C [21]: 0.19%
viability, T/C [22]: 0.13%
viability, T/C [23]: 0.25%
viability, T/C [24]: 0.19%

Reference: PubChem BioAssay AID2060624 (Molecular Pharmacology Branch, DTP, NCI, 2025)
